Earlier results in patent EP0851285A1, “Photothermographic recording material coatable from an aqueous medium” (priority 1996, dated 1998).

Details: salts B

In the case of `O=P(=O)[O-].[Ag+]` [silver metaphosphate], the “Solubility in water at 20°C” value (20°C) is given as 0.32 g/100mL water.

In the case of `[Ag+].[Ag+].[O]=[W](=[O])([O-])[O-]` [silver tungstate], the Solubility in water (at 15°C (cell overrides title's 20°C)) is listed as 0.05 (at 15°C) g/100mL water.
